Earlier results as cited in patent US10980860B2, “Diagnosis, prevention and treatment of diseases of the joint” (Ascendis Pharma A/S, priority 2012, dated 2021).

Tested on: osteoarthritis
Conditions: injection into the joint; Chevalier et al, J. Rheumatol 32 (2005); cited from earlier work

IL-1ra: IL-1ra (Anakinra, Kineret®, Swedish Orphan Biovitrum AB)
Reduction of symptoms of osteoarthritis: not significantly reducing the symptoms of osteoarthritis
